# Results taken from paper PMC8700061, “Fragment-Sized and Bidentate (Immuno)Proteasome Inhibitors Derived from Cysteine and Threonine Targeting Warheads” (Cells, 2021).
# Experiments:
# Format in all cases: biochemical
# [1] = target: T1, hBChE (Homo sapiens, UniProt P06276); assay: Cholinesterase assay (Ellman), hBChE; conditions: 30 min pre-incubation, read-out: Residual activity [%] ± SD, hBChE
# T1 construct: gift of Xavier Brazzolotto, Florian Nachon and José Dias (IRBA, Brétigny-sur-Orge, France)
# T1 sequence (P06276 29-602): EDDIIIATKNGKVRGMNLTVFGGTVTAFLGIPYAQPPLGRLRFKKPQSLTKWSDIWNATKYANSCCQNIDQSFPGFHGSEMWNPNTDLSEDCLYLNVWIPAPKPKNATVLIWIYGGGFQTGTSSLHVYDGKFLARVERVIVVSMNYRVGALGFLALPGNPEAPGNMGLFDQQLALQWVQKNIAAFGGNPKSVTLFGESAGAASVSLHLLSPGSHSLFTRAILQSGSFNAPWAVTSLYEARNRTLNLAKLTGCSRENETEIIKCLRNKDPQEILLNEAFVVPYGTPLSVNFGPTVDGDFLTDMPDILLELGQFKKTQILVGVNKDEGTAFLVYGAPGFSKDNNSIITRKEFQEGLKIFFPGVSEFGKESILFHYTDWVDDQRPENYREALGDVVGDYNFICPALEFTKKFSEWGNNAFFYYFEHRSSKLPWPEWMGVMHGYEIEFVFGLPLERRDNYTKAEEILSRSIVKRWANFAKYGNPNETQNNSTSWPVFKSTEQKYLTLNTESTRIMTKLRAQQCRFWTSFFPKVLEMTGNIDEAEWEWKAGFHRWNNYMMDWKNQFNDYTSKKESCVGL
# Description: The activity of the compounds against ChEs, namely hAChE and hBChE, was determined by the Ellman method. 5,5′-Dithiobis-2-nitrobenzoic acid (Ellman’s reagent; DTNB), butyrylthiocholine iodide, and acetylthiocholine iodides were from Sigma-Aldrich. Recombinant hAChE and hBChE were kindly provided by Xavier Brazzolotto, Florian Nachon, and José Dias (IRBA, Brétigny-sur-Orge, France). Reactions were performed in a final volume of 300 µL of 0.1 M phosphate-buffered solution, pH = 8.0, containing 370 µM DTNB, 500 μM butyrylthiocholine/acetylthiocholine iodide, and approximately 1 nM or 50–100 pM hBChE or hAChE, respectively. The reactions were started by the addition of the substrate after 30-min pre-incubation at room temperature. The final organic solvent (DMSO) content was always 1%. The formation of the yellow 5-thio-2-nitrobenzoate anion was monitored for 2 min at 412 nm, using a 96-well microplate reader (Synergy HT, BioTek Instruments, Inc., Santa Clara, CA, USA). The initial velocities in the presence (vi) and absence (vo) of the test compounds were calculated. Inhibitory potencies were expressed as residual activities (RA), according to the equation RA = (vi − b)/(vo − b), where b is the blank value.
# [2] = target: T2, hMAO-B (Homo sapiens, UniProt P27338); assay: Monoamine oxidase assay, hMAO-B; conditions: 30 min pre-incubation, read-out: Residual activity [%] ± SD, hMAO-B
# T2 construct: purchased Sigma Aldrich; host or cells: BTI-TN-5B1-4 insect cells
# T2 sequence (P27338 1-520): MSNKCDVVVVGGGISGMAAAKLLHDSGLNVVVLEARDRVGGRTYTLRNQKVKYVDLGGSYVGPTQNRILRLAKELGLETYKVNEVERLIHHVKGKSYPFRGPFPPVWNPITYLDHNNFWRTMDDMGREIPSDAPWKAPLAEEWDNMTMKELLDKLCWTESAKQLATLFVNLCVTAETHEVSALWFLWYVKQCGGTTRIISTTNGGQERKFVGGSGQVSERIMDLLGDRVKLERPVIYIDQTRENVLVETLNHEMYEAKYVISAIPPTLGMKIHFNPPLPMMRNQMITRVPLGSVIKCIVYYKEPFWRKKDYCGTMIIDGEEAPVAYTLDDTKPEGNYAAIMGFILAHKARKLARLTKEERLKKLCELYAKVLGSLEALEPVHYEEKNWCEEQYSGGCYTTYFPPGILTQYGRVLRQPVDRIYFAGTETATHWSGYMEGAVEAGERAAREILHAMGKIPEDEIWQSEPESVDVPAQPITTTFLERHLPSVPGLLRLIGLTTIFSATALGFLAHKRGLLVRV
# Description: The effects of the test compounds on hMAO were investigated using fluorimetric assay. Recombinant hMAO-A and hMAO-B, expressed in BTI-TN-5B1-4 insect cells, horseradish peroxidase type II and p-tyramine hydrochloride were purchased from Sigma Aldrich. Amplex Red was synthesized as previously described.
# Briefly, 50 mM sodium phosphate buffer (pH = 7.4, 0.05 vol.% Triton X-114) containing the compounds or the reference inhibitors and hMAO were incubated at 37 °C for 30 min. The reaction was started by adding Amplex Red (final concentration, 250 µM), horseradish peroxidase (final activity, 1 U/mL), and p-tyramine (final concentration, 1 mM). The increase in fluorescence (λex = 530 nm, λem = 590 nm) was monitored for 30 min at 37 °C. DMSO at a concentration of 1.5% (v/v) was used for the control experiments. For the determination of blank (b), the enzyme was replaced by phosphate-buffered solution. Each measurement was performed in duplicate. Inhibitory potencies were expressed as residual activities (RA), as described under the Cholinesterase assay section.
# [3] = target: T3, β2 subunit of human cCP (Homo sapiens, UniProt P49720+Q99436); assay: Residual β2 activity, Boc-LRR-AMC; conditions: PA28α; for β2 (RA [%]): 10 µM; for remaining activity at 10 µM: Table 3, read-out: β2 (RA [%])
# T3 construct: purchased Boston Biochem, Inc., Cambridge, MA, USA
# Description: (§1) Residual activity measurements were performed at 10 μM final concentrations in the assay buffer (0.01% SDS, 50 mM Tris-HCl, 0.5 mM EDTA, pH 7.4). Stock solutions of the compounds were prepared in DMSO. To 50 μL of each compound in buffer, 25 μL of 0.8 nM human iCP or human cCP (both from Boston Biochem, Inc., Cambridge, MA, USA) were added. After incubation at 37 °C for 30 min, the reaction was started by adding of 25 μL of 100 μM relevant fluorogenic substrate: acetyl-Nle-Pro-Nle-Asp-AMC (Ac-nLPnLD-AMC, (Bachem, Bubendorf, Switzerland)) for β1, acetyl-Pro-Ala-Leu-7-amino-4-methylcoumarin (Ac-PAL-AMC, (Boston Biochem, Inc., Cambridge, MA, USA)) for β1i, t-butyloxycarbonyl-Leu-Arg-Arg-7-amino-4-methylcoumarin (Boc-LRR-AMC, (Bachem, Bubendorf, Switzerland)) for β2 and β2i, succinyl-Leu-Leu-Val-Tyr-7-amino-4-methylcoumarin (Suc-LLVY-AMC) (Bachem, Bubendorf, Switzerland) for β5 and β5i. Reaction progress was recorded on BioTek Synergy HT microplate reader by monitoring fluorescence at 460 nm (λex = 360 nm) for 90 min at 37 °C. The initial linear ranges were used to calculate velocity and determine residual activity. In the case of evaluation of β1, βi, β2, and β2i activities, the assay buffer was modified by replacing SDS with the proteasomal activator PA28α (Boston Biochem, Inc., Cambridge, MA, USA).
# [4] = target: T4, β1i subunit of human iCP (Homo sapiens, UniProt P28065+P40306); assay: Inhibition of β1i activity (RA, IC50), Ac-PAL-AMC; conditions: PA28α; for IC50: 30 min pre-incubation; for remaining activity at 10 µM: Table 3, read-out: β1i residual activity at 10 µM
# T4 construct: purchased Boston Biochem, Inc., Cambridge, MA, USA
# Description: as §1
# Final assay mixtures contained 0.2 nM human iCP or 0.2 nM human cCP in assay buffer (0.01% SDS (or PA28α in cases of β1, β1i subunits), 50 mM Tris-HCl, 0.5 mM EDTA, pH 7.4). Inhibitors were dissolved in DMSO and added to the black 96-well plates for at least eight different concentrations (the final concentration of DMSO was not more than 1%). After 30 min of incubation at 37 °C, the reaction was started by adding the substrate Suc-LLVY-AMC (for β5 and β5i) or Ac-nLPnLD-AMC (for β1) or Ac-PAL-AMC (for β1i). Fluorescence was monitored at 460 nm (λex = 360 nm) for 90 min at 37 °C. The progress of the reactions was recorded and the initial linear ranges were used to calculate the velocity. IC50 values were calculated using GraphPadPrism (GraphPad Software, San Diego, CA, USA) and are means from at least three independent determinations.
Compound,remaining activity at 100 µM [1] [%],remaining activity at 100 µM [2] [%],β2 (RA [%]) ([3]; Table 3),IC50 [4] [µM],remaining activity at 10 µM [3] [%],remaining activity at 10 µM [4] [%],β2 (RA [%]) ([3]; Table 6)
COc1cccc2oc(C#N)nc12 [Compound 6],36 ± 1,35 ± 1,"NA (NA, Not active (RA above 90%))",78,,,
N#Cc1nc2c(O)cccc2o1 [Compound 10],> 50,> 50,,,> 90,> 90,
N#Cc1nc2cc(O)ccc2o1 [Compound 11],> 50,29,,,> 90,> 90,
N#Cc1nc2cccc(O)c2o1 [Compound 13],> 50,> 50,,,71,> 90,
CC(=O)Oc1cccc2oc(C#N)nc12 [Compound 14],> 50,> 50,,,> 90,> 90,
CC(=O)Oc1ccc2oc(C#N)nc2c1 [Compound 15],> 50,33,,,> 90,> 90,
C=Cc1nc(CC(=O)N[C@@H](CC(C)C)B2O[C@@H]3C[C@@H]4C[C@@H](C4(C)C)[C@]3(C)O2)cs1 [Compound 28],27 ± 3,> 50,,2.2 ± 0.1,,,"NA (NA, Not active (RA above 95%))"
CC(C)C[C@H](NC(=O)CCn1c(C#N)nc2ccccc21)B1O[C@@H]2C[C@@H]3C[C@@H](C3(C)C)[C@]2(C)O1 [Compound 30],> 50,> 50,,1.2 ± 0.1,,,"NA (NA, Not active (RA above 95%))"
CC(C)C[C@H](NC(=O)CCCn1c(C#N)nc2ccccc21)B1O[C@@H]2C[C@@H]3C[C@@H](C3(C)C)[C@]2(C)O1 [Compound 31],> 50,> 50,,6 ± 3.2,,,"NA (NA, Not active (RA above 95%))"
CC(C)C[C@H](NC(=O)CCn1c(C#N)nc2ccccc21)B(O)O [Compound 34],> 50,> 50,,2.8 ± 0.5,,,"NA (NA, Not active (RA above 95%))"
CC(C)C[C@H](NC(=O)CCCn1c(C#N)nc2ccccc21)B(O)O [Compound 35],> 50,> 50,,9.4 ± 1.9,,,"NA (NA, Not active (RA above 95%))"
CC(C)C[C@H](NC(=O)CCn1c(C#N)nc2cccc(Cl)c21)B1O[C@@H]2C[C@@H]3C[C@@H](C3(C)C)[C@]2(C)O1 [Compound 38],> 50,42,,1.9,,,"NA (NA, Not active (RA above 95%))"
CC(C)C[C@H](NC(=O)Cc1ccc2oc(C#N)nc2c1)B1O[C@@H]2C[C@@H]3C[C@@H](C3(C)C)[C@]2(C)O1 [Compound 39],45 ± 1,47 ± 1,,1.3,,,"NA (NA, Not active (RA above 95%))"
CC(C)C[C@H](NC(=O)Cc1ccc2oc(C#N)nc2c1)B(O)O [Compound 40],33 ± 1,44,,2.1 ± 0.1,,,"NA (NA, Not active (RA above 95%))"
